According to US6927223B1, “Use of serotonin agents for adjunct therapy in the treatment of cancer” (priority 2000, dated 2005):
“Also recorded” adds a separate entry of the source.

Tests used:
B16F10 melanoma cells = conditions: cited from earlier work; for tumor lung colonization (wet weight of tumor aggregates) versus saline controls: fluoxetine 12, 16, 20 or 40 mg/m^2, amitriptyline 30, 60 or 75 mg/m^2, from 24 hours after i.v. inoculation; for median survival: tumor cells injected i.v., all groups
A375 melanoma cells [1] = system: A375 melanoma cells
Procedure: (§1) Viability was assessed by the crystal violet assay. […] Values are mean±SE for three experiments. […] Values are for one experiment.
(§2) A375 and SKMel-28 cells were seeded at a density of 20,000 cells in one ml DMEM+10% FBS per well in 24 well plates and cultured for 24 hours. […] The culture plates were removed and the medium from each well was discarded. The cells were fixed with acetic acid:methanol (1:3) for one hour at room temperature. The fixed cells were washed with 80% methanol and stained with crystal violet (0.5%) for one hour. Crystal violet dye is taken up proportionately depending upon the number of cells that are adhered to the plate. Excess dye is removed by washing plates in running distilled water. After the plates were dry, the dye was solubilized in 10% acetic acid. Aliquots of solubilized dye from each well were transferred to a 96 well plate and the absorbance of the color was measured at 585 nm. The effects were compared relative to untreated controls.

B16BL6 melanoma cells = conditions: stated jointly for B16BL6 and A375
A375 melanoma cells [2] = conditions: stated jointly for B16BL6 and A375
SKMel-28 cells = assay: Viability of melanoma cells, crystal violet assay; format: cell-based, human; conditions: SKMel-28, preliminary data from one study
Procedure: as §1, §2

B16BL6 melanoma = assay: Established subcutaneous B16BL6 melanoma in water- or ethanol-drinking C57BL6 mice: tumor growth, metastasis, body weight, intake, body fat; conditions: for Perigonadal Fat (mg ± SE): necropsy; for Carcass Fat (% ± SE): weight of lipid/dry carcass weight x 100
Procedure: In an effort to approximate the effect of SSRIs on melanomas in clinical situations, administration of the agents began after tumor growth was apparent.
Fourteen to 16 C57BL6 mice per group were inoculated s.c. with 1×10^6 B16BL6 melanoma cells. […] The test agent and saline control were injected daily subcutaneously (s.c.) into the gluteal region opposite from the site of tumor inoculation, approximately two hours before the dark cycle. […] At 21 days the animals were sacrificed.
Female C57/BL6 mice consumed either water or 20% w/v ethanol ad libitum for six weeks prior to inoculation with of melanoma cells. The mice were injected with 1×10^6 tumor cells subcutaneously (s.c.) into the dorsal hip.
Two weeks after inoculation, the animals were divided into four treatment groups: (1) water drinking or (2) ethanol drinking, both groups injected with saline control for seven days; (3) water drinking or (4) ethanol drinking. […] Tumor growth was measured with calipers on days 14, 16, 18, and 20. Mice were killed on day 21 and necropsied.
Perigonadal and carcass fat were determined. Body weight, food consumption, and fluid-consumption were measured continually throughout the experiment.
Perigonadal fat, a measure of body fat content, was removed at necropsy and weighed. Mice were then dehydrated at 60° C. until they reached constant weight. They were then pulverized in a Bel-Art Micro-Mill. The whole carcass was transferred to a soxhlet extractor and the lipid was extracted with chloroform:methanol (2:1) for 24 hours. The extraction cone containing the carcass was removed, air-dried to evaporate the chloroform and methanol, and then weighed. The difference in weight was the weight of carcass lipid. The percentage of carcass lipid was calculated as the weight of lipid/dry carcass weight×100.

3T3 adipocytes = assay: Lipid accumulation in adipocytes differentiated from NIH 3T3 fibroblasts, Oil Red-O staining; format: cell-based; conditions: 5 μM and 10 μM, 10 days
Procedure: The relative absorbance was calculated as the ratio of absorbance of each treatment to the absorbance of the nondifferentiated (Ndiff) cells.
After 10 days the lipid content was determined by staining the cells with Oil Red-O and determining the intensity of the red color in an uv spectrophotometer. Experiments were done in triplicate.

[3] = 10 mg/kg/day injected i.v. or continuously infused subcutaneously via pump, mice; cited from earlier work
metastatic melanoma = conditions: single agent; cited from earlier work
[4] = Ethanol-drinking mice (20% w/v), 10 mg/kg/day s.c. for 7 days
[5] = Water-drinking mice, 10 mg/kg/day s.c. for 7 days

CN(C)CCC=C1c2ccccc2CCc2ccccc21 [amitriptyline]
tumor lung colonization (wet weight of tumor aggregates) versus saline controls (B16F10 melanoma cells): increased tumor lung colonization
median survival (B16F10 melanoma cells): 17 days

CNCCC(Oc1ccc(C(F)(F)F)cc1)c1ccccc1 (stereo not shown) [fluoxetine]
tumor lung colonization (wet weight of tumor aggregates) versus saline controls (B16F10 melanoma cells): increased tumor lung colonization
median survival (B16F10 melanoma cells): 17 days
cell viability at 16 μM (A375 melanoma cells [1]; A375, 16 μM): almost all the cells were dead
concentration at which drug toxicity is evident (A375 melanoma cells [1]; A375, crystal violet): 4 µM
concentration range of more pronounced toxicity (A375 melanoma cells [1]; A375, crystal violet): 8 to 16 µM
time within which toxicity is exerted (A375 melanoma cells [1]; A375 and SKMel-28, crystal violet): ≤ 24 h
fluoxetine level that completely inhibited the incorporation of isotope (B16BL6 melanoma cells): about 30 uM
fluoxetine level that completely inhibited the incorporation of isotope (A375 melanoma cells [2]): about 30 uM
major toxicity range (SKMel-28 cells): 8 to 16 µM
tumor growth rate (B16BL6 melanoma; 10 mg/kg/day s.c. for 7 days, irrespective of water or ethanol consumption): significantly decreased
decrease in wet weight of tumors at necropsy versus saline-injected mice (B16BL6 melanoma; 10 mg/kg/day s.c. for 7 days, necropsy day 21): greater than 2 fold
Perigonadal Fat (mg ± SE) (B16BL6 melanoma; [4]): 192 ± 53 mg
Carcass Fat (% ± SE) (B16BL6 melanoma; [4]): 31.7 ± 2.3 %
Perigonadal Fat (mg ± SE) (B16BL6 melanoma; [5]): 53 ± 25 mg
Carcass Fat (% ± SE) (B16BL6 melanoma; [5]): 25.8 ± 1.4%
tumor volume (B16BL6 melanoma; daily s.c. injection from day 14 to day 21, water- and ethanol-consuming mice): decreased tumor volume
corrected body weight (total body weight minus tumor wet weight), test versus control animals (B16BL6 melanoma; day 21): nearly identical
toxicity of the effective dose (B16BL6 melanoma; mouse, in vivo): non toxic
number and frequency of metastases (B16BL6 melanoma; subcutaneous B16BL6 tumors, 10 mg/kg/day s.c. for 7 days, 10 mg/kg/day): inhibit metastasis; also recorded: greatly reduced
food intake (B16BL6 melanoma; water-drinking mice, experimental period): does not alter food intake
lipid content of differentiated adipocytes (3T3 adipocytes): increases lipid content
approximate serum level [3]: 100 to 280 ng/mL

CN(C)/N=N/c1[nH]cnc1C(N)=O [DTIC, dimethyltriazenoimidazole carboxymide]
share of cases of metastatic melanoma with partial remission (metastatic melanoma): about one-quarter
